In patent US20190119251A1, “AMIDE-SUBSTITUTED ARYLTRIAZOLE DERIVATIVES AND USES THEREOF” (BAYER PHARMA AKTIENGESELLSCHAFT, priority 2016, published 2019):

Experiments:
human V2 receptor = biological target: T1, human V2 receptor (Homo sapiens, UniProt P30518); assay: Cellular in vitro assay for determining vasopressin receptor activity (V2 cell line, CRE-luciferase); format: cell-based; details: CHO cell line transfected with the human V2 receptor; agonist [Arg8]-vasopressin at EC50 concentration; 3 hours incubation; read-out: IC50 hV2
T1 construct: expressed in transfected cells; host or cells: CHO K1 (Chinese hamster ovary) expressing firefly luciferase under a CRE-responsive promoter
Experimental: (§1) B-1. Cellular In Vitro Assay for Determining Vasopressin Receptor Activity
(§2) The identification of agonists and antagonists of the V 1 a and V2 vasopressin receptors from humans, rats and dogs as well as the quantification of the activity of the compounds of the invention is carried out using recombinant cell lines. These cell lines originally derive from a hamster's ovary epithelial cell (Chinese Hamster Ovary, CHO K1, ATCC: American Type Culture Collection, Manassas, Va. 20108, USA). The test cell lines constitutively express the human, rat or dog
(§3) V1 a or V2 receptors. In case of the Gag-coupled V 1 a receptors, cells are also stably transfected with a modified form of the calcium-sensitive photoproteins aequorin (human and rat V1a) or obelin (dog V 1 a), which, after reconstitution with the cofactor coelenterazine, emit light when there are increases in free calcium concentrations [Rizzuto R, Simpson A W, Brini M, Pozzan T, Nature 358, 325-327 (1992); Illarionov B A, Bondar V S, Illarionova V A, Vysotski E S, Gene 153 (2), 273-274 (1995)]. The resulting vasopressin receptor cells react to stimulation of the recombinantly expressed V 1 a receptors by intracellular release of calcium ions, which can be quantified by the resulting photoprotein luminescence. The Gs-coupled V2 receptors are stably transfected into cell lines expressing the gene for firefly luciferase under control of a CRE-responsible promoter. Activation of V2 receptors induces the activation of the CRE-responsive promoter via cAMP increase, thereby inducing the expression of firefly luciferase. The light emitted by photoproteins of V1a cell lines as well as the light emitted by firefly luciferase of V2 cell lines corresponds to the activation or inhibition of the respective vasopressin receptor. The bioluminescence of the cell lines is detected using a suitable luminometer [Milligan G, Marshall F, Rees S, Trends in Pharmacological Sciences 17, 235-237 (1996)].
Vasopressin V2 Receptor Cell Lines:
On the day before the assay, the cells are plated out in culture medium (DMEM/F12, 2% FCS, 2 mM glutamine, 10 mM HEPES) in 384-well microtiter plates and kept in a cell incubator (96% humidity, 5% v/v CO2, 37° C.). On the day of the assay, test compounds in various concentrations and the agonist [Arg^8]-vasopressin at EC50 concentration are added together to the wells, and plates are incubated for 3 hours in a cell incubator. Upon addition of the cell lysis reagent Triton™ and the substrate luciferin, luminescence of firefly luciferase is measured in a luminometer.
(§4) Table 1A below lists individual IC50 values for the compounds of the invention (including racemic mixtures as well as separated enantiomers) that were obtained from cell lines transfected with the human V1a or V2 receptor: […]

human V1a receptor = biological target: T2, human V1a receptor (Homo sapiens, UniProt P37288); assay: Cellular in vitro assay for determining vasopressin receptor activity (V1a cell line, aequorin luminescence); format: cell-based; details: for IC50: CHO cell line transfected with the human V1a receptor, agonist [Arg8]-vasopressin at EC50 concentration, read-out: IC50 hV1a; for ratio IC50 hV2/hV1a: ratio of cellular IC50 values, human V2 over human V1a
T2 construct: expressed in transfected cells; host or cells: CHO K1 (Chinese hamster ovary), also stably transfected with modified aequorin
Experimental: as §1, §2, §3
Vasopressin V1a Receptor Cell Lines:
On the day before the assay, the cells are plated out in culture medium (DMEM/F12, 2% FCS, 2 mM glutamine, 10 mM HEPES, 5 μg/ml coelenterazine) in 384-well microtiter plates and kept in a cell incubator (96% humidity, 5% v/v CO2, 37° C.). On the day of the assay, test compounds in various concentrations are placed for 10 minutes in the wells of the microtiter plate before the agonist [Arg^8]-vasopressin at EC50 concentration is added. The resulting light signal is measured immediately in a luminometer.
as §4

T2 sequence (P37288 whole entry): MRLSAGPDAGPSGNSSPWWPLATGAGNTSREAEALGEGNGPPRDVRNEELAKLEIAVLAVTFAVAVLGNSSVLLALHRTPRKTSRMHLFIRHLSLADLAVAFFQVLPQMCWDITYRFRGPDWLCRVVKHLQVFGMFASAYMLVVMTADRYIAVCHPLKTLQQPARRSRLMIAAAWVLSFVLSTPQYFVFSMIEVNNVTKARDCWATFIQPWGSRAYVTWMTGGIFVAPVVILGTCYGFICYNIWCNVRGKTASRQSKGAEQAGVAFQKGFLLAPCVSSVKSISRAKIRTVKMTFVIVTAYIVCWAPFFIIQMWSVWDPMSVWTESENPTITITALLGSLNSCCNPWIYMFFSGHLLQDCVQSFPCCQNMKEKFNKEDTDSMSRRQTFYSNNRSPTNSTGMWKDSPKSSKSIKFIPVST
T1 sequence (P30518 whole entry): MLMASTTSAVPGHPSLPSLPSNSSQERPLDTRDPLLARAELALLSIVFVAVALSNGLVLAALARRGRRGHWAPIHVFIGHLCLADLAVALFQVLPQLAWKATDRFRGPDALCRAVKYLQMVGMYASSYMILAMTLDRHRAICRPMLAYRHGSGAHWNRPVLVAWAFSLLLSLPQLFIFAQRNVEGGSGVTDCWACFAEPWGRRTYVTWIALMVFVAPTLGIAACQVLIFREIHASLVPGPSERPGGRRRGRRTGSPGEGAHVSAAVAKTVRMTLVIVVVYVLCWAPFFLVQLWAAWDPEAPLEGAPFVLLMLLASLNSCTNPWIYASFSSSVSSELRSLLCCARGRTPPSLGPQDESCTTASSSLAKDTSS

## NC(=O)c1nc(Cn2nc(-c3ccc(Cl)cc3)n(C[C@H](O)C(F)(F)F)c2=O)nn1-c1ccccc1Br [Example 17, 1-(2-Bromophenyl)-3-({3-(4-chlorophenyl)-5-oxo-4-[(2S)-3,3,3-trifluoro-2-hydroxypropyl]-4,5-dihydro-1H-1,2,4-triazol-1-yl}methyl)-1H-1,2,4-triazole-5-carboxamide]
Human V2 receptor
  IC50: 7 nM
Human V1a receptor
  IC50: 0.45 nM
  ratio IC50 hV2/hV1a: 15.6

## CSc1ccccc1-n1nc(Cn2nc(-c3ccc(Cl)cc3)n(C[C@H](O)C(F)(F)F)c2=O)nc1C(N)=O [Example 18, 3-({3-(4-Chlorophenyl)-5-oxo-4-[(2S)-3,3,3-trifluoro-2-hydroxypropyl]-4,5-dihydro-1H-1,2,4-triazol-1-yl}methyl)-1-[2-(methylsulfanyl)phenyl]-1H-1,2,4-triazole-5-carboxamide]
Human V2 receptor
  IC50: 1.65 nM
Human V1a receptor
  IC50: 0.54 nM
  ratio IC50 hV2/hV1a: 3.1

## Cc1ccccc1-n1nc(Cn2nc(-c3ccc(Cl)cc3)n(C[C@H](O)C(F)(F)F)c2=O)nc1C(N)=O [Example 19, 3-({3-(4-Chlorophenyl)-5-oxo-4-[(2S)-3,3,3-trifluoro-2-hydroxypropyl]-4,5-dihydro-1H-1,2,4-triazol-1-yl}methyl)-1-(2-methylphenyl)-1H-1,2,4-triazole-5-carboxamide]
Human V2 receptor
  IC50: 4.91 nM
Human V1a receptor
  IC50: 0.65 nM
  ratio IC50 hV2/hV1a: 7.5

## CCc1ccccc1-n1nc(Cn2nc(-c3ccc(Cl)cc3)n(C[C@H](O)C(F)(F)F)c2=O)nc1C(N)=O [Example 20, 3-({3-(4-Chlorophenyl)-5-oxo-4-[(2S)-3,3,3-trifluoro-2-hydroxypropyl]-4,5-dihydro-1H-1,2,4-triazol-1-yl}methyl)-1-(2-ethylphenyl)-1H-1,2,4-triazole-5-carboxamide]
Human V2 receptor
  IC50: 2.73 nM
Human V1a receptor
  IC50: 0.75 nM
  ratio IC50 hV2/hV1a: 3.7

## NC(=O)c1nc(Cn2nc(-c3ccc(Cl)cc3)n(C[C@H](O)C(F)(F)F)c2=O)nn1-c1c(F)cccc1Cl [Example 21, 1-(2-Chloro-6-fluorophenyl)-3-({3-(4-chlorophenyl)-5-oxo-4-[(2S)-3,3,3-trifluoro-2-hydroxypropyl]-4,5-dihydro-1H-1,2,4-triazol-1-yl}methyl)-1H-1,2,4-triazole-5-carboxamide]
Human V2 receptor
  IC50: 5.25 nM
Human V1a receptor
  IC50: 0.75 nM
  ratio IC50 hV2/hV1a: 7.0

## NC(=O)c1nc(Cn2nc(-c3ccc(Cl)cc3)n(C[C@H](O)C(F)(F)F)c2=O)nn1-c1c(Cl)cccc1Cl [Example 22, 3-({3-(4-Chlorophenyl)-5-oxo-4-[(2S)-3,3,3-trifluoro-2-hydroxypropyl]-4,5-dihydro-1H-1,2,4-triazol-1-yl}methyl)-1-(2,6-dichlorophenyl)-1H-1,2,4-triazole-5-carboxamide]
Human V2 receptor
  IC50: 3.63 nM
Human V1a receptor
  IC50: 1.65 nM
  ratio IC50 hV2/hV1a: 2.2

## Cc1cccc(C)c1-n1nc(Cn2nc(-c3ccc(Cl)cc3)n(C[C@H](O)C(F)(F)F)c2=O)nc1C(N)=O [Example 23, 3-({3-(4-Chlorophenyl)-5-oxo-4-[(2S)-3,3,3-trifluoro-2-hydroxypropyl]-4,5-dihydro-1H-1,2,4-triazol-1-yl}methyl)-1-(2,6-dimethylphenyl)-1H-1,2,4-triazole-5-carboxamide]
Human V2 receptor
  IC50: 2.53 nM
Human V1a receptor
  IC50: 2.45 nM
  ratio IC50 hV2/hV1a: 1.0

## NC(=O)c1nc(Cn2nc(-c3ccc(Cl)cc3)n(C[C@H](O)C(F)(F)F)c2=O)nn1-c1ccccc1[N+](=O)[O-] [Example 24, 3-({3-(4-Chlorophenyl)-5-oxo-4-[(2S)-3,3,3-trifluoro-2-hydroxypropyl]-4,5-dihydro-1H-1,2,4-triazol-1-yl}methyl)-1-(2-nitrophenyl)-1H-1,2,4-triazole-5-carboxamide]
Human V2 receptor
  IC50: 30.5 nM
Human V1a receptor
  IC50: 2.6 nM
  ratio IC50 hV2/hV1a: 11.7

## NC(=O)c1nc(Cn2nc(-c3ccc(Cl)cc3)n(C[C@H](O)C(F)(F)F)c2=O)nn1-c1c(F)cccc1F [Example 25, 3-({3-(4-Chlorophenyl)-5-oxo-4-[(2S)-3,3,3-trifluoro-2-hydroxypropyl]-4,5-dihydro-1H-1,2,4-triazol-1-yl}methyl)-1-(2,6-difluorophenyl)-1H-1,2,4-triazole-5-carboxamide]
Human V2 receptor
  IC50: 6.45 nM
Human V1a receptor
  IC50: 2.95 nM
  ratio IC50 hV2/hV1a: 2.2

## NC(=O)c1nc(Cn2nc(-c3ccc(Cl)cc3)n(C[C@H](O)C(F)(F)F)c2=O)nn1-c1ccc(F)cc1Cl [Example 26, 1-(2-Chloro-4-fluorophenyl)-3-({3-(4-chlorophenyl)-5-oxo-4-[(2S)-3,3,3-trifluoro-2-hydroxypropyl]-4,5-dihydro-1H-1,2,4-triazol-1-yl}methyl)-1H-1,2,4-triazole-5-carboxamide]
Human V2 receptor
  IC50: 17 nM
Human V1a receptor
  IC50: 3.5 nM
  ratio IC50 hV2/hV1a: 4.9

## NC(=O)c1nc(Cn2nc(-c3ccc(Cl)cc3)n(C[C@H](O)C(F)(F)F)c2=O)nn1-c1ccccc1OC(F)F [Example 27, 3-({3-(4-Chlorophenyl)-5-oxo-4-[(2S)-3,3,3-trifluoro-2-hydroxypropyl]-4,5-dihydro-1H-1,2,4-triazol-1-yl}methyl)-1-[2-(difluoromethoxy)phenyl]-1H-1,2,4-triazole-5-carboxamide]
Human V2 receptor
  IC50: 41.7 nM
Human V1a receptor
  IC50: 4.5 nM
  ratio IC50 hV2/hV1a: 9.3

## CC(C)c1ccccc1-n1nc(Cn2nc(-c3ccc(Cl)cc3)n(C[C@H](O)C(F)(F)F)c2=O)nc1C(N)=O [Example 28, 3-({3-(4-Chlorophenyl)-5-oxo-4-[(2S)-3,3,3-trifluoro-2-hydroxypropyl]-4,5-dihydro-1H-1,2,4-triazol-1-yl}methyl)-1-(2-isopropylphenyl)-1H-1,2,4-triazole-5-carboxamide]
Human V2 receptor
  IC50: 64.5 nM
Human V1a receptor
  IC50: 4.85 nM
  ratio IC50 hV2/hV1a: 13.3

## NC(=O)c1nc(Cn2nc(-c3ccc(Cl)cc3)n(C[C@H](O)C(F)(F)F)c2=O)nn1-c1ccccc1F [Example 29, 3-({3-(4-Chlorophenyl)-5-oxo-4-[(2S)-3,3,3-trifluoro-2-hydroxypropyl]-4,5-dihydro-1H-1,2,4-triazol-1-yl}methyl)-1-(2-fluorophenyl)-1H-1,2,4-triazole-5-carboxamide]
Human V2 receptor
  IC50: 24.1 nM
Human V1a receptor
  IC50: 13.3 nM
  ratio IC50 hV2/hV1a: 1.8

## NC(=O)c1nc(Cn2nc(-c3ccc(Cl)cc3)n(C[C@H](O)C(F)(F)F)c2=O)nn1-c1ccccc1 [Example 30, 3-({3-(4-Chlorophenyl)-5-oxo-4-[(2S)-3,3,3-trifluoro-2-hydroxypropyl]-4,5-dihydro-1H-1,2,4-triazol-1-yl}methyl)-1-phenyl-1H-1,2,4-triazole-5-carboxamide]
Human V2 receptor
  IC50: 9.75 nM
Human V1a receptor
  IC50: 14 nM
  ratio IC50 hV2/hV1a: 0.7

## CCc1cccc(C)c1-n1nc(Cn2nc(-c3ccc(Cl)cc3)n(C[C@H](O)C(F)(F)F)c2=O)nc1C(N)=O [Example 31, 3-({3-(4-Chlorophenyl)-5-oxo-4-[(2S)-3,3,3-trifluoro-2-hydroxypropyl]-4,5-dihydro-1H-1,2,4-triazol-1-yl}methyl)-1-(2-ethyl-6-methylphenyl)-1H-1,2,4-triazole-5-carboxamide]
Human V2 receptor
  IC50: 7.95 nM
Human V1a receptor
  IC50: 14.5 nM
  ratio IC50 hV2/hV1a: 0.5

## NC(=O)c1nc(Cn2nc(-c3ccc(Cl)cc3)n(C[C@H](O)C(F)(F)F)c2=O)nn1-c1cccc(F)c1 [Example 32, 3-({3-(4-Chlorophenyl)-5-oxo-4-[(2S)-3,3,3-trifluoro-2-hydroxypropyl]-4,5-dihydro-1H-1,2,4-triazol-1-yl}methyl)-1-(3-fluorophenyl)-1H-1,2,4-triazole-5-carboxamide]
Human V2 receptor
  IC50: 23.9 nM
Human V1a receptor
  IC50: 18.3 nM
  ratio IC50 hV2/hV1a: 1.3
